The text below walks through data of ChEMBL document CHEMBL5291721, “A preclinical secondary pharmacology resource illuminates target-adverse drug reaction associations of marketed drugs” (Nat Commun, 2023).

Assay [1] concerns the target T1, Gastrin/cholecystokinin type B receptor (Homo sapiens, UniProt P32239).
T1 sequence (P32239 whole entry): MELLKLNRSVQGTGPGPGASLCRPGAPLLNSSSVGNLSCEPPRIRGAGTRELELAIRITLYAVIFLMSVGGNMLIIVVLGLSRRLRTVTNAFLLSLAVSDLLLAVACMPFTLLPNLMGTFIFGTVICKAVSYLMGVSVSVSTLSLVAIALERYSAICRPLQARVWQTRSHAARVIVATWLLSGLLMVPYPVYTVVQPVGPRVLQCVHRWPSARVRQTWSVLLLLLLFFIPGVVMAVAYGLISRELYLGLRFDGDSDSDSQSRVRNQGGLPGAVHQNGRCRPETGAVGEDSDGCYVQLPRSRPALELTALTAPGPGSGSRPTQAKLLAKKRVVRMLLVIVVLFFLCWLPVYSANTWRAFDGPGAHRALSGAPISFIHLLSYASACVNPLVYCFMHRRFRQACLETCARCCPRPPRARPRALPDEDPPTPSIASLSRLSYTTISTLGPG

Assay [2] deals with 3',5'-cyclic-AMP phosphodiesterase 4D (Homo sapiens, UniProt Q08499). The format is functional.
The target in assay [3] is T2, Alpha-2A adrenergic receptor (Homo sapiens, UniProt P08913).
T2 sequence (P08913 whole entry): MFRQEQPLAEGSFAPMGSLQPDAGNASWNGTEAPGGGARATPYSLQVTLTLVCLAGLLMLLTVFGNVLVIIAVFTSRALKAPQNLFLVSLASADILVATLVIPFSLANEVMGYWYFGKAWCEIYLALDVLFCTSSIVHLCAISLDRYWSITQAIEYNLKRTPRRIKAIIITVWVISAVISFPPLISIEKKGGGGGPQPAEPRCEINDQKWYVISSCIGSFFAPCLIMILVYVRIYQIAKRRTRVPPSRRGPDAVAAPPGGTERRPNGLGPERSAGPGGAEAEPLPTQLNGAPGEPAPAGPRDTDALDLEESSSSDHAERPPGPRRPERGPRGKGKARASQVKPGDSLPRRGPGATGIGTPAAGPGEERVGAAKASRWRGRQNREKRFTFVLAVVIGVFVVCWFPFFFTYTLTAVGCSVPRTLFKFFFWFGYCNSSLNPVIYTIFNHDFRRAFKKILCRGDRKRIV
The format is functional, cell-based.

The target in assay [4] is T3, Neuropeptide Y receptor type 1 (Homo sapiens, UniProt P25929).
T3 sequence (P25929 whole entry): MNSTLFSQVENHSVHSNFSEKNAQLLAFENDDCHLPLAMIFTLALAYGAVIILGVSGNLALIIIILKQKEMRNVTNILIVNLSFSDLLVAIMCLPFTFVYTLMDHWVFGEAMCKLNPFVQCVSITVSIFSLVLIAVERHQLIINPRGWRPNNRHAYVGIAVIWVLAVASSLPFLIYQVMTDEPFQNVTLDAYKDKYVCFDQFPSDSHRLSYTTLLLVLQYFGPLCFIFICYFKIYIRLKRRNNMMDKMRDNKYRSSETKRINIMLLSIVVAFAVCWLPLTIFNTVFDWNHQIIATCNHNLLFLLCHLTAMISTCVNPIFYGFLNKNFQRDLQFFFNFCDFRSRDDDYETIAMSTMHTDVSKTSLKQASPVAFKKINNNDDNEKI

The target in assay [5] is Voltage-dependent L-type calcium channel subunit alpha-1C (Rattus norvegicus, UniProt P22002). The format is functional.
The target in assay [6] is T4, Progesterone receptor (Homo sapiens, UniProt P06401).
T4 sequence (P06401 whole entry): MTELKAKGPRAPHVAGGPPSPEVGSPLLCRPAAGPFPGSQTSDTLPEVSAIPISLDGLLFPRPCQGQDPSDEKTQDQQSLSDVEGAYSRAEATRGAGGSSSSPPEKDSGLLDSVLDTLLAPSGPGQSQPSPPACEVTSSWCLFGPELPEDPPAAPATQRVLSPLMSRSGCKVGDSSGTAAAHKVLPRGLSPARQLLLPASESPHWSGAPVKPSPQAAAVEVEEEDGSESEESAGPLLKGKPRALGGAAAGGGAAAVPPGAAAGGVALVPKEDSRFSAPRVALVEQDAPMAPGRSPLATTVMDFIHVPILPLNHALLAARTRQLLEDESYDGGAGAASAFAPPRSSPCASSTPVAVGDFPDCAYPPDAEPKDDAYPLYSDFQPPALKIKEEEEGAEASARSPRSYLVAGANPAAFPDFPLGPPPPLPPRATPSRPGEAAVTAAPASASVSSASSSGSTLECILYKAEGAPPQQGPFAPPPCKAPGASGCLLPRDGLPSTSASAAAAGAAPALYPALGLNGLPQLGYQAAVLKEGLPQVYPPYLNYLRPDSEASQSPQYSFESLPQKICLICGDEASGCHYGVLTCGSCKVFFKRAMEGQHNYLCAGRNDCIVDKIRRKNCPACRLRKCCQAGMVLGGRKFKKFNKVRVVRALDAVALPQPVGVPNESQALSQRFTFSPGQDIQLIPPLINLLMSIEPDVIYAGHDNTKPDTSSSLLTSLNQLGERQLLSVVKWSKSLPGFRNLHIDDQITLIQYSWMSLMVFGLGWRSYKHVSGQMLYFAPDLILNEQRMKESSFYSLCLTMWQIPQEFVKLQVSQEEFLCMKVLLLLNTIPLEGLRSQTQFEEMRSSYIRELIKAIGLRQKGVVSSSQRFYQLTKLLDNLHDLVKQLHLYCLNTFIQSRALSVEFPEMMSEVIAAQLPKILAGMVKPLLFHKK
It counts as functional.

The target in assay [7] is Muscarinic acetylcholine receptor M3 (Homo sapiens, UniProt P20309).
Further: assay procedure not described here.

Sequence of 3',5'-cyclic-AMP phosphodiesterase 4D (Q08499 whole entry): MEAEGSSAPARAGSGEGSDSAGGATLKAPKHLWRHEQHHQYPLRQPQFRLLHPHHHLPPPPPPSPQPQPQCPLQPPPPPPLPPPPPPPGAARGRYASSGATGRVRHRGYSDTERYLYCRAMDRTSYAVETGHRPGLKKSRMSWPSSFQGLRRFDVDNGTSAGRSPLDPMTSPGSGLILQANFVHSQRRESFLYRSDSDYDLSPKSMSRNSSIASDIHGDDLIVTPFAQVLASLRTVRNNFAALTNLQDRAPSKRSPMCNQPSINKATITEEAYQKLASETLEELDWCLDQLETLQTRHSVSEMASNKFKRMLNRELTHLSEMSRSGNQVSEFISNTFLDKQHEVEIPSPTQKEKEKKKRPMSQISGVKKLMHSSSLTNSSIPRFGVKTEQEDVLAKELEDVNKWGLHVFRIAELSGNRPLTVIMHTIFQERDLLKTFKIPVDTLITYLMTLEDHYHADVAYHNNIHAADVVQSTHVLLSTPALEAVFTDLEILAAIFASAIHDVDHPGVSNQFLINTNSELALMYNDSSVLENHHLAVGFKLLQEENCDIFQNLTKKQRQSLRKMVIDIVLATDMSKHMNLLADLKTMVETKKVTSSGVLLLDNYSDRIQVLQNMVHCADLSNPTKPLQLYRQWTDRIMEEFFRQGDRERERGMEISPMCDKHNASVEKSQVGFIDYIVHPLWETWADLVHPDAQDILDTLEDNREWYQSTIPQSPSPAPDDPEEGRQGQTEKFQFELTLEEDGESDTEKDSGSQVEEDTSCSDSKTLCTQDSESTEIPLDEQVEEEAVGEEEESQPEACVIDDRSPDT
Sequence of Muscarinic acetylcholine receptor M3 (P20309 whole entry): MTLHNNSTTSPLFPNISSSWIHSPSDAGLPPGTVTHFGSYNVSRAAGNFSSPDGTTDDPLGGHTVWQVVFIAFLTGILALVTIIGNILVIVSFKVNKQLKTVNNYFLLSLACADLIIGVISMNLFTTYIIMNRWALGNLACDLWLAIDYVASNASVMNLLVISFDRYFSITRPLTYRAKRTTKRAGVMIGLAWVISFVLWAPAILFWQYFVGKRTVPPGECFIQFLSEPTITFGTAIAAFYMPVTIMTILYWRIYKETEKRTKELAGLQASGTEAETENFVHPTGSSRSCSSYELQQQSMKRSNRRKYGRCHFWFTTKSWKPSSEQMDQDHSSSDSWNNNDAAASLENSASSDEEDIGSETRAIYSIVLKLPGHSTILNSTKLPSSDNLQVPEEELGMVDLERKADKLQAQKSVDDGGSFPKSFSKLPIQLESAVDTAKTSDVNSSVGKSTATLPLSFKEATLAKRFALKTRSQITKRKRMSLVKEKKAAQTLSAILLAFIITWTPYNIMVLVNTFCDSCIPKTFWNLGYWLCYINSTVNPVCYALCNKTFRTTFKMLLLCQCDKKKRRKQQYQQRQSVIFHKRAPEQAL
Sequence of Voltage-dependent L-type calcium channel subunit alpha-1C (P22002 whole entry): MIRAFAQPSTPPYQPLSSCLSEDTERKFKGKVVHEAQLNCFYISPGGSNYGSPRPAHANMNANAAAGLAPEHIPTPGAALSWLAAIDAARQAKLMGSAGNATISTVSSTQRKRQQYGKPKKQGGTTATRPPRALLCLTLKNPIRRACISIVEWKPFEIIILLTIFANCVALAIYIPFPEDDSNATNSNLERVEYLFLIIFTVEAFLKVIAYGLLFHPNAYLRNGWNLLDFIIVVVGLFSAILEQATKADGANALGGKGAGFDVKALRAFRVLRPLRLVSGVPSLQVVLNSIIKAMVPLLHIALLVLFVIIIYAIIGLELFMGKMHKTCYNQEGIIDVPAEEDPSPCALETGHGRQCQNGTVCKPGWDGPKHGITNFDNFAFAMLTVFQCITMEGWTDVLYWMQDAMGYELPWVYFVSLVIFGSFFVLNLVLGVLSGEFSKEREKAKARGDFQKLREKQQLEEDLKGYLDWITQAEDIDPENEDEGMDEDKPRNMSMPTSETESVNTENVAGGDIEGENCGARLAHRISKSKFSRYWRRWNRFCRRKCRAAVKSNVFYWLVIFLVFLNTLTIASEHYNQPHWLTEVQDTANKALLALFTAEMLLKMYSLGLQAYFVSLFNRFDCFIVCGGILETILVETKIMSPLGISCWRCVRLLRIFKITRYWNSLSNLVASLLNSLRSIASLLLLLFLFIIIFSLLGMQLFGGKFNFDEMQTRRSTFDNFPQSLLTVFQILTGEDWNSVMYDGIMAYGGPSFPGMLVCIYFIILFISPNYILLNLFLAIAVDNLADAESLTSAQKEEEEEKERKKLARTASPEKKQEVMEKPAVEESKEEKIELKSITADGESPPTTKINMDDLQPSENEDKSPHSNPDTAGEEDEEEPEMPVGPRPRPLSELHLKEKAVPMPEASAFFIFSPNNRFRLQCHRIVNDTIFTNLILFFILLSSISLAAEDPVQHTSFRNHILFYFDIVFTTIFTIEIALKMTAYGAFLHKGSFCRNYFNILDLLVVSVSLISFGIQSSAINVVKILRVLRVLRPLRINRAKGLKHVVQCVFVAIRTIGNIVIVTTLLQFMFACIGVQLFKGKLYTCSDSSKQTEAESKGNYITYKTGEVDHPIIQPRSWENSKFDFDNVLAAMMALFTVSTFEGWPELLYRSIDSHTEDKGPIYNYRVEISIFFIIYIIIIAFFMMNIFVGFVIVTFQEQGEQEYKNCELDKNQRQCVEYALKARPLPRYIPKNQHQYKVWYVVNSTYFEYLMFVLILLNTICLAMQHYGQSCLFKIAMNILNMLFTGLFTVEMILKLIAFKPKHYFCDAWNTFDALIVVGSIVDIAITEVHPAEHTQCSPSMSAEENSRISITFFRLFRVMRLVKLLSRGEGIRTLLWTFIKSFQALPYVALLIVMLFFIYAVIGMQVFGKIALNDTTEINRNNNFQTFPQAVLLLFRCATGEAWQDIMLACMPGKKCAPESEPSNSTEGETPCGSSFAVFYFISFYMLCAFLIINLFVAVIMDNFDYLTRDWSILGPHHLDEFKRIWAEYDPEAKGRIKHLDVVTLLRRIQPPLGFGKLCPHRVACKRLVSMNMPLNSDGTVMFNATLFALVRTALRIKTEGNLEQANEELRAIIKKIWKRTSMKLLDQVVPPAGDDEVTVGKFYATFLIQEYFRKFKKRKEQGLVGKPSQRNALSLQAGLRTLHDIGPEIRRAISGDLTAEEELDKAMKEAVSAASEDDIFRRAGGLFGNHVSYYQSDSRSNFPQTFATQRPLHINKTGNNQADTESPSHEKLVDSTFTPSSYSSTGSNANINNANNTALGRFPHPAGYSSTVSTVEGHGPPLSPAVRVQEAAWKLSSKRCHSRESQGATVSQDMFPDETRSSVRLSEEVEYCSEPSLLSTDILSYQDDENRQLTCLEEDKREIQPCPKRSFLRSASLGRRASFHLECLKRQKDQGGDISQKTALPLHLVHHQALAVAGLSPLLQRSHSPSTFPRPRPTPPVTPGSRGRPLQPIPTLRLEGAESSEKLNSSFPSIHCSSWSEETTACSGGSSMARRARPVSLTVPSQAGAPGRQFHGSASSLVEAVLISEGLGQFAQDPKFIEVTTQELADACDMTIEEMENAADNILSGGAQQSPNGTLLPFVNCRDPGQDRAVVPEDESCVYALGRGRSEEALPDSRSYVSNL

As to `CNS(=O)(=O)Cc1ccc2[nH]cc(CCN(C)C)c2c1`, the concentration at half-maximal activity (AC50) in assay [1] is above 30 µM; in assay [2], above 30 µM; in assay [3], above 30 µM; in assay [4] it was above 30 µM; in assay [5], above 10 µM.

For the compound `Nc1nc(N)nc(-c2cc(Cl)ccc2Cl)n1` [IRSOGLADINE], the half-maximal activity concentration (AC50) is above 30 µM in assay [6]; above 30 µM in assay [1]; 21.4 µM in assay [2]; above 30 µM in assay [3]; above 30 µM in assay [4].

Take `CC(=O)O[C@H]1C[C@@H]2CC[C@@H]3[C@H](CC[C@@]4(C)[C@H]3C[C@H]([N+]3(C)CCCCC3)[C@@H]4OC(C)=O)[C@@]2(C)C[C@@H]1N1CCCCC1` [VECURONIUM]: the AC50 in assay [6], in assay [1], in assay [2], in assay [3], in assay [4] and in assay [5] was above 30 µM each time.

For `COc1ccc2c3c1O[C@H]1[C@@H](O)C=C[C@H]4[C@@H](C2)N(C)CC[C@@]341` [CODEINE], the half-maximal activity concentration (AC50) was above 30 µM in assay [1]; above 30 µM in assay [7]; 7.2 µM in assay [2]; above 10 µM in assay [3]; above 30 µM in assay [4]; above 10 µM in assay [5].

On to `CCCc1nc(C(C)(C)O)c(C(=O)OCc2oc(=O)oc2C)n1Cc1ccc(-c2ccccc2-c2nnn[nH]2)cc1` [OLMESARTAN MEDOXOMIL], for which the AC50 is above 50 µM in assay [1]; above 10 µM in assay [7]; 3.9 µM in assay [2]; above 10 µM in assay [3]; above 10 µM in assay [4]; above 10 µM in assay [5].

Take `CN1CCN(CC/C=C2/c3ccccc3Sc3ccc(S(=O)(=O)N(C)C)cc32)CC1` [THIOTHIXENE]: the AC50 in assay [1] is above 30 µM; in assay [7], above 10 µM; in assay [2], 4.1 µM; in assay [3], 5.9 µM; in assay [4], above 30 µM; in assay [5], above 10 µM.

For the compound `COc1ccc(CCN(C)CCCC(C#N)(c2cc(OC)c(OC)c(OC)c2)C(C)C)cc1OC` (centres undefined) [GALLOPAMIL], the concentration at half-maximal activity (AC50) in assay [1] is above 30 µM; in assay [7], above 30 µM; in assay [2] it was 9.2 µM; in assay [3], 25 µM; in assay [4], above 30 µM.

With `CCc1c(Cl)c(O)c(Cl)c(O)c1C(=O)O[C@H]1[C@H](O)[C@H](OC)[C@H](OC/C2=C\C=C\C[C@H](O)/C(C)=C/[C@H](CC)[C@@H](O[C@@H]3OC(C)(C)[C@@H](OC(=O)C(C)C)[C@H](O)[C@@H]3O)/C(C)=C/C(C)=C/C[C@@H]([C@@H](C)O)OC2=O)O[C@@H]1C` [FIDAXOMICIN], the half-maximal activity concentration (AC50) in assay [6] was above 30 µM; in assay [1], 7.9 µM; in assay [2], above 30 µM; in assay [4], above 30 µM; in assay [5], above 10 µM.

As for `CN1CCC(=C2c3ccccc3CCc3sccc32)CC1` [PIZOTYLINE], the concentration at half-maximal activity (AC50) in assay [1] was above 30 µM; in assay [7], above 10 µM; in assay [2] it was above 10 µM; in assay [3] it was 3.97 µM; in assay [4], above 30 µM; in assay [5], 20.1 µM.

For `CNC(C)CCC=C(C)C` (centres undefined) [ISOMETHEPTENE], the AC50 in assay [6], in assay [1] and in assay [4] was above 30 µM in each case.

`CCOC(=O)OC(C)OC1=C(C(=O)Nc2ccccn2)N(C)S(=O)(=O)c2ccccc21` (centres undefined) [AMPIROXICAM]: the AC50 in assay [6], in assay [1], in assay [2], in assay [3], in assay [4] and in assay [5] was above 30 µM throughout.

`CO/N=C(\C(=O)N[C@@H]1C(=O)N2C(C(=O)O)=C(CSc3nnnn3C)CS[C@H]12)c1csc(N)n1` [CEFMENOXIME]: the concentration at half-maximal activity (AC50) in assay [6] was 1.8 µM; in assay [1], above 30 µM; in assay [2], above 30 µM; in assay [3], above 30 µM; in assay [4] it was above 30 µM.

Consider `CCN1CCN(C(=O)N[C@@H](C(=O)N[C@@H]2C(=O)N3C(C(=O)O)=C(CSc4nnnn4C)CS[C@H]23)c2ccc(O)cc2)C(=O)C1=O` [CEFOPERAZONE], for which the AC50 in assay [1], in assay [7], in assay [2], in assay [3] and in assay [4] was above 30 µM in each case.

Consider `CC[C@@H]1C(=O)OC[C@@H]1Cc1cncn1C` [PILOCARPINE], for which the concentration at half-maximal activity (AC50) in assay [1] was above 30 µM; in assay [2] it was above 30 µM; in assay [3], above 10 µM; in assay [4] it was above 30 µM; in assay [5], above 10 µM.

On to `Cn1c(=O)c2c(ncn2CC2OCCO2)n(C)c1=O` [DOXOFYLLINE], for which the AC50 in assay [6], in assay [1], in assay [2], in assay [3], in assay [4] and in assay [5] was above 30 µM throughout.

`COC(=O)[C@H]1[C@H]2C[C@@H]3c4[nH]c5cc(OC)ccc5c4CCN3C[C@H]2C[C@@H](OC(=O)/C=C/c2cc(OC)c(OC)c(OC)c2)[C@@H]1OC` [RESCINNAMINE]: the AC50 is above 10 µM in assay [6]; above 30 µM in assay [7]; above 30 µM in assay [2]; above 10 µM in assay [3]; above 10 µM in assay [4]; 5.16 µM in assay [5].

For `N#Cc1ccc([C@H]2CCc3cncn32)c(F)c1` [OSILODROSTAT], the concentration at half-maximal activity (AC50) in assay [1], in assay [7], in assay [2], in assay [4] and in assay [5] was above 10 µM throughout.

For the compound `C=CCC1(CC(C)C)C(=O)NC(=O)NC1=O` [BUTALBITAL], the AC50 in assay [6] was above 10 µM; in assay [7] it was above 30 µM; in assay [2], above 30 µM; in assay [3], above 10 µM; in assay [4], above 10 µM; in assay [5], above 10 µM.

As to `CC(C[N+](C)(C)C)OC(N)=O` (centres undefined) [BETHANECHOL], the AC50 in assay [6] is above 10 µM; in assay [7], above 30 µM; in assay [2], above 30 µM; in assay [3], above 10 µM; in assay [4], above 10 µM; in assay [5], above 10 µM.

On to `CCCC(C)C1(CC)C(=O)NC(=O)NC1=O` (centres undefined) [PENTOBARBITAL], for which the concentration at half-maximal activity (AC50) in assay [6] was above 10 µM; in assay [7], above 30 µM; in assay [2] it was above 30 µM; in assay [3] it was above 10 µM; in assay [4], above 10 µM; in assay [5], above 10 µM.

A word on the AC50: it is the concentration giving half of the maximal activity seen.
